Source: article PMC9563435, “Comparison of Different Clinical Chemotherapeutical Agents’ Toxicity and Cell Response on Mesenchymal Stem Cells and Cancer Cells” (Cells, 2022)

Legend:
Format in all cases: cell-based, human
A431-mCh cells [1] = test: γ-H2AX staining of DNA double-stranded breaks, A431-mCh
Procedure: (§1) Ad-MSC-GFP 3 cells were seeded into glass-bottomed chamber slides (ibidi, Germany, Grafelfing, Germany) at 1 × 10^4/well and A431-mCh at 1.6 × 10^4/well density. […] Cells in all chambers were fixed with 4% PFA for 15 min and washed twice with PBS. Blocking solution (0.5% BSA-PBS, 0.1% TritonX-100, 5% goat serum, and 1% fish gelatin) was used for 1 h. γ-H2A.X primary antibody (MA1-2022, Invitrogen, United States) was diluted in blocking solution at 1:500 concentration and incubated overnight at 4 °C. Afterwards, the cells were washed with PBS twice and goat anti-mouse A633 secondary antibody (A21052, abcam, Cambridge, UK) was diluted at 1:250 concentration in blocking solution. Nuclei was stained with a Hoechst-33342 (23491-52-3, Dojindo, Kumamoto, Japan) at 1:1000 concentration.
(§2) To quantify DNA damage based on immunofluorescence against γ-H2AX, a semi-automated image analysis pipeline was set up using CellProfiler v4.1.3 [10]. First, images showing DAPI-stained nuclei were pre-processed by intensity normalization and Gaussian filtering (ϭ = 20 px) to suppress noise and remove artifacts caused by debris. Nuclei candidates were identified by threshold-based segmentation; false candidates were removed from the analysis manually. Using the remaining nuclei regions as masks, pixel intensities were measured on the γ-H2AX channel, thus, excluding non-nuclei signals.

[2] = test system: 6 MSCs and 3 cancer cell lines; test: Cytotoxicity / cell viability assay (PrestoBlue), panel of MSCs and cancer cell lines; conditions: 5 days treatment, IC50 comparison
Procedure: (§3) Cells were seeded in a 96-well tissue culture plate in 100 µL of medium. Ad-MSC-GFP 1, iAd-MSC-GFP 1, Ad-MSC-GFP 2, Ad-MSC-GFP 3, BM-MSC, and HFF were seeded at 5 × 10^3/100 µL/well density and A431-mCh, MES-SA-mCh, and MCF-7-GFP at 4 × 10^3 cells/100 µL/well concentration in DMEM-F12 media. Different initial cell numbers were used due to different proliferation rates of different cell types. Cells were allowed to attach overnight at 37 °C and the day after were treated with the drugs using the indicated concentrations in 100 µL. Cell viability was measured by using PrestoBlue™ Cell Viability Reagent (A13232, Invitrogen, Waltham, MA, USA). To address metabolic differences between cancer cells and MSCs, the assay was optimized for each cell line, cells were incubated with 5 or 12.5% PrestoBlue™ Cell Viability Reagent diluted in PBS at 37 °C/5% CO2 for 1–1.5 h 5 days after the treatment. The fluorescence signal was measured by an EnSpire (Perkin Elmer, Waltham, MA, USA) fluorometer at 555 nm (excitation)/585 nm (emission) wavelength.
After the incubation period, the relative fluorescence data was measured. The data was normalized with the fluorescence of blank samples (cell culture media). A sigmoidal dose–response curve was fitted to the normalized measurement data and the logarithm of the concentration using the least square method. An inhibitory concentration of 50% (IC50 and log10) was interpolated from the fitted graph. […] In these cases, IC50 was calculated from the line connecting the measurement points. For repeated measurements, average and standard deviation was calculated based on the logarithm of the IC50 values.
To compare the mean IC50 values of six mesenchymal stem cell lines (Group-1) and three cancer cell lines (Group-2), first an F-test was performed to check equal variances between the groups, then two-sample unpaired t-tests were performed to calculate significance using Microsoft® Excel® 2016 (16.0.4266.1001).

Ad-MSC-GFP 3 cells [3] = test: Cytotoxicity / cell viability assay (PrestoBlue) on Ad-MSC-GFP 3; conditions: Ad-MSC-GFP 3 / Ad-MSC 3, 5 days
Procedure: as §3
After the incubation period, the relative fluorescence data was measured. The data was normalized with the fluorescence of blank samples (cell culture media). […] In these cases, IC50 was calculated from the line connecting the measurement points. For repeated measurements, average and standard deviation was calculated based on the logarithm of the IC50 values.

Ad-MSC 3 cells [4] = test: Senescence β-galactosidase staining, Ad-MSC 3; conditions: 4 µM; 5 days treatment then 7 days drug-free
Procedure: At day 5, media was removed and replaced with 200 µL of completed DMEM-F12 for 7 days. The Senescence β-Galactosidase Staining Kit (9860S, Cell Signaling Technology, Danvers, MA, USA) was used to detect senescent cells. Cells were fixed with fixing solution, washed with PBS, stained with X-gal solution overnight at 37 °C without CO2, and coated with 70% glycerol.

A431 cells = test: ROS induction (DCFH-DA), A431; conditions: 1 h, different concentrations incl. higher
Procedure: (§4) Ad-MSC 3 and A431 cells were seeded in a 96-well tissue culture plate and incubated for 24 h as described above. Cells were washed twice with HBSS and incubated in 100 µL of DCFH-DA dye (R252-10, Dojindo) according to the manufacturer’s instructions. Cells were incubated for 30 min at 37 °C and washed twice with HBSS. […] Supernatant was removed, and the cells were washed with HBSS before imaging with the JuLI^TM Stage Cell History Recorder (NanoEnTek).

Ad-MSC 3 cells [5] = test: Apoptosis assay (Annexin V / TO-PRO-3 flow cytometry), Ad-MSC 3
Procedure: Apoptosis detection was based on the Annexin-V molecule binding to phosphatidylserine membrane molecules. Two cell lines were used to study apoptosis: Ad-MSC 3 cells were plated in a 5 × 10^4 cells/well concentration, while 4 × 10^4/well A431-mCh were seeded into each well in a 12-well tissue culture plate. […] At day 5, cells were trypsinized and centrifuged, while the supernatant was also collected and combined with the detached cells to include all already dead cells. Cells were washed twice with 500 µL of 1% BSA-PBS (bovine serum albumin dissolved in PBS, A8022, Sigma-Aldrich, St. Louis, MO, USA) solution and centrifuged at 400× G for 4 min. Cells were resuspended in 100 µL of 1× Annexin Binding Buffer (422201, Biolegend, San Diego, CA, USA), and 3 µL of Annexin V-Pacific Blue (A35122, Biolegend, San Diego, CA, USA) and 1 µL of TO-PRO-3 (R37170, Invitrogen, Waltham, MA, USA) were added to each sample. After 15 min of incubation, labeled and non-labeled samples were diluted 5-fold with 1× Annexin Binding Buffer and analyzed by Attune™ NxT flow cytometer.

Ad-MSC-GFP 3 cells [6] = test: Live cell imaging, confluency, Ad-MSC-GFP 3; conditions: 120 h live cell imaging
Procedure: (§5) JuLI™ Stage Cell History Recorder was used to monitor a five-day cytotoxicity assay on Ad-MSC-GFP 3 and A431-mCh cell lines. […] Images were taken every 105 min for 120 h at 10× objective magnification. Live cell microscopy studies were evaluated using the “Growth curve” function of the JuLI STAT image analysis software (v2.0.1.0).

A431-mCh cells [7] = test: Live cell imaging, confluency, A431-mCh; conditions: 120 h
Procedure: as §5

Ad-MSC-GFP 3 cells [8] = test: γ-H2AX staining of DNA double-stranded breaks, Ad-MSC-GFP 3
Procedure: as §1, §2

Ad-MSC 3 cells [9] = test: ROS induction (DCFH-DA), Ad-MSC 3; conditions: 1 h, different concentrations incl. higher
Procedure: as §4

[10] = 120 h, IC50 concentrations of A431 (2 µM cisplatin, 0.1 µM doxorubicin, 30 µM nutlin-3)

SMILES: N.N.[Cl][Pt][Cl] [cisplatin]
- effect on A431 cells in γ-H2AX experiment (A431-mCh cells [1]; 10 µM, 5 days): almost completely eradicating A431 cells
- DNA damage (γ-H2AX) (A431-mCh cells [1]; [10]): massive DNA damage
- drug sensitivity of MSCs compared with cancer cells (in words) [2]: required significantly higher concentrations to kill MSCs than cancer cells
- IC50 (Ad-MSC-GFP 3 cells [3]): 10 µM
- SA-β-Gal staining (senescence) (Ad-MSC 3 cells [4]): slightly increased SA-ß-Gal staining
- ROS induction (A431 cells): did not induce ROS
- apoptosis (in words) (Ad-MSC 3 cells [5]; 10 µM (IC50 level of Ad-MSC-GFP 3)): notable amounts of late apoptosic cells
- apoptosis compared to untreated controls (in words) (Ad-MSC 3 cells [5]; 120 h): virtually no apoptosis
- concentration at which significant drops in confluency were seen, as multiple of Ad-MSC-GFP 3 IC50 (Ad-MSC-GFP 3 cells [6]): 2 fold
- number of viable colonies in live cell imaging (A431-mCh cells [7]; IC50 of A431-mCh and 10-fold higher concentration): significantly reduced the number of viable colonies
- growth kinetics in live cell imaging (A431-mCh cells [7]; concentration 10-fold lower than A431-mCh IC50): did not alter growth kinetics
- number of double-stranded breaks (γ-H2AX) (Ad-MSC-GFP 3 cells [8]; 10 µM, 5 days): significantly increased the number of double-stranded breaks
- DNA double-stranded breaks (γ-H2AX) (Ad-MSC-GFP 3 cells [8]; [10]): no DNA break was detected
- ROS induction (Ad-MSC 3 cells [9]): did not induce ROS
